Data as given in ChEMBL document CHEMBL1201862, “PubChem BioAssay data set” (2004).
Activity calls are given as the source filed them.

Legend:
Bcl-2-like protein 10 = Bcl-2-like protein 10 (Homo sapiens, UniProt Q9HD36); assay: displacers of TR3 peptide from Bcl-B, primary screen, selectivity assay for Bfl-1 inhibitor project, biochemical, fluorescence polarization, FITC-TR3 peptide (AID 748);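 note: fluorescence polarization from a fluorescein-labelled TR3 peptide binding purified Bcl-B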
[1] = biological target: T1, Heat shock factor protein 1 (Mus musculus, UniProt P38532); assay: HSF1 potentiators in luciferase reporter cells, confirmation, cell-based, NIH3T3, luminescence, dose retest (AID 435004); assay type: functional;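 note: stress induced by proteasome inhibitor MG132 added 30 min after compound; luciferase reporter driven by HSF1 response element in NIH3T3 cells; actives raise luminescence as potentiators of the MG132 stress response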
T1 sequence (P38532 whole entry): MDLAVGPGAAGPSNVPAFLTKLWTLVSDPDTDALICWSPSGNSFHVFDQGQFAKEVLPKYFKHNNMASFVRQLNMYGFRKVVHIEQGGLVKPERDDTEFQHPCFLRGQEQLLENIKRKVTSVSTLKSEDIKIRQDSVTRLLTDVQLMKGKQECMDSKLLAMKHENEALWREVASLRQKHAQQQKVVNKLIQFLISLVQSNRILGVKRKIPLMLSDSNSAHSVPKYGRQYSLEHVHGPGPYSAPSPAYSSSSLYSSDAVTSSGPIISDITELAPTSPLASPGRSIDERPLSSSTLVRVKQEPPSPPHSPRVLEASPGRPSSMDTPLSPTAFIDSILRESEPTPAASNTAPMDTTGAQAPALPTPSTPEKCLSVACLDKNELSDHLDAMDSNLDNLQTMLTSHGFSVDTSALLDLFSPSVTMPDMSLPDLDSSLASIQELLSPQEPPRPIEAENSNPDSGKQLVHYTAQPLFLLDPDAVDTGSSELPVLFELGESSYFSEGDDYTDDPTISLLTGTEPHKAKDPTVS

[2] = cytotoxicity in HEK-293T cells, dose response, cytotoxicity control for BCR NF-kB inhibitor project, luminescence, B-cell screen hits (AID 489021); assay type: functional, cell-based;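 note: HEK-293T cells carrying an NF-kB luciferase reporter; cells exposed to compound for about 14 hours before viability readout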
[3] = biological target: Intestinal-type alkaline phosphatase (Homo sapiens, UniProt P09923); assay: activation of human intestinal alkaline phosphatase – biochemical, dose response (AID 488873); assay type: functional
Sequence of Intestinal-type alkaline phosphatase (Homo sapiens, UniProt P09923) (P09923 whole entry): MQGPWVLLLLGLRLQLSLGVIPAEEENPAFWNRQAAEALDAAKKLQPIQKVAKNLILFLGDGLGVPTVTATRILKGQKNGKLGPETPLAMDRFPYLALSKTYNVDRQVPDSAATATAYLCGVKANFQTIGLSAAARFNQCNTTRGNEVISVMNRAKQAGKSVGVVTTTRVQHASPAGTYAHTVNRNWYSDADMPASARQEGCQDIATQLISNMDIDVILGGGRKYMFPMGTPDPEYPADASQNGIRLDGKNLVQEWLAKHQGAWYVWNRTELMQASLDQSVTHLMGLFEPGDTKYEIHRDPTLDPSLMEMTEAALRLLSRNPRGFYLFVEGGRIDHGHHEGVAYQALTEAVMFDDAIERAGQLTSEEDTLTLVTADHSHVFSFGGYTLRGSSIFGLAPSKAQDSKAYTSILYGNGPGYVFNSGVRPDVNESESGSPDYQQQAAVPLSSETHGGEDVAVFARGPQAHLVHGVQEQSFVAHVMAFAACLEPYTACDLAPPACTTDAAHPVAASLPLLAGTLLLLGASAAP

[4] = biological target: Intestinal-type alkaline phosphatase (Mus musculus, UniProt P24822); assay: PubChem AID 488785; assay type: functional
Sequence of Intestinal-type alkaline phosphatase (Mus musculus, UniProt P24822) (P24822 whole entry): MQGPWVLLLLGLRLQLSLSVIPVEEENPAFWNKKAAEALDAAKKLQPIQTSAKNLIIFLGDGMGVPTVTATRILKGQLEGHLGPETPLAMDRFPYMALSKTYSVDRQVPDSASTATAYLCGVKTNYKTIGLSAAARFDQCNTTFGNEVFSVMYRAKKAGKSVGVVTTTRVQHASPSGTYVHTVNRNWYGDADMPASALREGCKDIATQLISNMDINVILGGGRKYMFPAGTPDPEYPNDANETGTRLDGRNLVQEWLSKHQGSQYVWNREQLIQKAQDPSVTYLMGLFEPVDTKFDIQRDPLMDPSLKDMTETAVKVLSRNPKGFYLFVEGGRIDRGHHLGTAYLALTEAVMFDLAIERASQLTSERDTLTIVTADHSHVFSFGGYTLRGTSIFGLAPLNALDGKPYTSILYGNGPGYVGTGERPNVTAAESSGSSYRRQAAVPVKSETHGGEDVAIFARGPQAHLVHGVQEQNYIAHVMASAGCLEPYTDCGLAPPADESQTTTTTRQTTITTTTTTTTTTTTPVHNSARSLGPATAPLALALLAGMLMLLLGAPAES

[5] = biological target: T2, Alkaline phosphatase, tissue-nonspecific isozyme (Homo sapiens, UniProt P05186); assay: TNAP enzyme inhibition by screening hits, dose response, selectivity assay for mouse IAP inhibitor project, biochemical, human TNAP, uHTS hits (AID 488906); assay type: functional
T2 sequence (P05186 whole entry): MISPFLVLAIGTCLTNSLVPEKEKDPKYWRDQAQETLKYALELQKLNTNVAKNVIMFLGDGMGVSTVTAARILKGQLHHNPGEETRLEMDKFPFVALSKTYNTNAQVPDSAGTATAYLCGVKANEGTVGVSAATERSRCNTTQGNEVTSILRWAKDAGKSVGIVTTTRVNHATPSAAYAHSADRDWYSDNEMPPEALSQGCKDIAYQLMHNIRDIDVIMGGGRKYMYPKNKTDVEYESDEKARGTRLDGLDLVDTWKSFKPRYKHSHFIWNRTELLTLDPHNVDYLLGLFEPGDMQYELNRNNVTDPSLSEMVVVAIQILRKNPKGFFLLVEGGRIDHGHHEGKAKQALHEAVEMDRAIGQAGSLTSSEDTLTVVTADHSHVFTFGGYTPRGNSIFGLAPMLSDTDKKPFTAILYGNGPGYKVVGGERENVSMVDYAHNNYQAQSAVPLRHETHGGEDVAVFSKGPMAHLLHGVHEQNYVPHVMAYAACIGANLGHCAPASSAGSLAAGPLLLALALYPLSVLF

[6] = biological target: FAD-linked sulfhydryl oxidase ALR (Homo sapiens, UniProt P55789); assay: inhibitors of human ALR sulfhydryl oxidase, dose response, biochemical, H2O2 detection, luminescence, cherry-pick (AID 493248)
Sequence of FAD-linked sulfhydryl oxidase ALR (P55789 whole entry, the tested form may be a part): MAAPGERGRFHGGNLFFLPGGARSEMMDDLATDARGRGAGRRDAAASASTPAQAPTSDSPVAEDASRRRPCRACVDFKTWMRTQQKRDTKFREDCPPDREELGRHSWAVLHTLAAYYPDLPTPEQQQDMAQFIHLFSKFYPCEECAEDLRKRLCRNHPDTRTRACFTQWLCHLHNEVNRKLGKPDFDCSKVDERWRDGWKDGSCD

[7] = luciferase reporter signal reduction – luminescence, H4-C neuroglioblastoma cells, dose response (AID 2458); assay type: functional, cell-based;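 note: H4 neuroglioblastoma cells stably carrying a luciferase reporter gene fusion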
Vero = assay: cells; assay type: functional; settings: Chlorocebus sabaeus
[8] = inhibitors of SNCA 5'UTR-driven reporter translation, confirmation, H4 neuroglioma cells, luminescence (AID 1988); assay type: functional, cell-based
[9] = biological target: T3, Kappa-type opioid receptor (Homo sapiens, UniProt P41145); assay type: functional
T3 sequence (P41145 whole entry): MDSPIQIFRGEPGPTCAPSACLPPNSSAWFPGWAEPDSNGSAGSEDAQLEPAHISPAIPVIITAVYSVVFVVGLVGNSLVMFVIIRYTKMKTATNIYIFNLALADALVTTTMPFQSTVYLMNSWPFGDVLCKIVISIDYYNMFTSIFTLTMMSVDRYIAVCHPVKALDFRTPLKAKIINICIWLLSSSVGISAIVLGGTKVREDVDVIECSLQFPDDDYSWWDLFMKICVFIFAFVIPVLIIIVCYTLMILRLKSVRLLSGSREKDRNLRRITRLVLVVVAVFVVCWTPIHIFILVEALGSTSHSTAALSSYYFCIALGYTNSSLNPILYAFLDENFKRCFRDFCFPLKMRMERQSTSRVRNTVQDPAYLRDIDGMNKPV

cells = assay type: functional, cell-based
[10] = Luminescence Cell-Based Dose Response HTS to Identify Inhibitors of 5'UTR Stem-Loop Driven Prion Protein mRNA Translation in H4 Neuroglioblastoma Cells. [Related pubchem assays: 1827 (Project Summary), 1813 (Primary HTS)]; assay type: functional
Beta-galactosidase = Beta-galactosidase (Escherichia coli, UniProt Q8VNN2); assay type: functional
Sequence of Beta-galactosidase (Q8VNN2 whole entry): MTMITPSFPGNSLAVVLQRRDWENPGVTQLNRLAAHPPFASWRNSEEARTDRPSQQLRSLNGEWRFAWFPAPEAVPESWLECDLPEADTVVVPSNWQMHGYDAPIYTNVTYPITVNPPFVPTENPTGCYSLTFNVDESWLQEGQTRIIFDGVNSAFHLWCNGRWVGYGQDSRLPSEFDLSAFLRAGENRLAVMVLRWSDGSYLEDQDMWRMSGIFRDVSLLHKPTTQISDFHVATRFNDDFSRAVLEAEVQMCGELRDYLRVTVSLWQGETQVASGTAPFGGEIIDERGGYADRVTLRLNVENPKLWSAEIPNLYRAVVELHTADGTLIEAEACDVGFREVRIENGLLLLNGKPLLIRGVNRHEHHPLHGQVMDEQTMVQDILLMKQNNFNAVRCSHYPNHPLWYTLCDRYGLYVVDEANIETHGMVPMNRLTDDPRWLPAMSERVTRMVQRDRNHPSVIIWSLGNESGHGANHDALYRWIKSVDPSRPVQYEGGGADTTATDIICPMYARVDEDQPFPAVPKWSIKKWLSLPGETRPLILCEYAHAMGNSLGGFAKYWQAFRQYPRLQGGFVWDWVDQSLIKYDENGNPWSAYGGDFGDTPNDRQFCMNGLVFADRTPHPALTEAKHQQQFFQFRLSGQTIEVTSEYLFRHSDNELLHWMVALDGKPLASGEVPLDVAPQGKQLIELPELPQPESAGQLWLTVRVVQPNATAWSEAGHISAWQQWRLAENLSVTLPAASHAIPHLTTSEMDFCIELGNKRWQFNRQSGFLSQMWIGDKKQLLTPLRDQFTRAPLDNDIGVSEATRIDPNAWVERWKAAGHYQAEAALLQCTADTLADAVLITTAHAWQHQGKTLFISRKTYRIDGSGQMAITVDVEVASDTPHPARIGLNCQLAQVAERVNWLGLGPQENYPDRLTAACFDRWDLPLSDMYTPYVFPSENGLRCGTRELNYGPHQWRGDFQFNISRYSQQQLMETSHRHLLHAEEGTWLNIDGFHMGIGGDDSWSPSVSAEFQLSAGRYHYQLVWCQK

[11] = biological target: Heat shock protein HSP 90-alpha (Homo sapiens, UniProt P07900); assay type: functional, organism-based
[12] = inhibitors of firefly luciferase expression or activity, dose response, H4 neuroglioma cells, luminescence (AID 1990); assay type: functional, cell-based
Streptococcus = assay: Group A Streptococcus viability loss, dose response, counter-screen for streptokinase expression inhibitor project, luminescence, BacTiterGlo (AID 1915); assay type: functional, organism-based;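 note: potency for reduction of bacterial viability or growth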
INS1 = assay: beta cell apoptosis inhibitors, cytokine rescue, dose response, luminescence, retest (AID 449756); assay type: functional, cell-based; settings: Rattus norvegicus;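 note: cell death triggered by IL-1 beta plus TNF-alpha plus IFN-gamma mixture; protective hits raise ATP signal compared with cytokine alone wells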
[13] = system: Streptococcus sp. 'group A'; assay: growth inhibition of control SK(-) GAS strain, dose response, counter-screen for streptokinase expression inhibitor project, luminescence, kanamycin, BacTiterGlo, confirmation (AID 1900); assay type: functional, organism-based
[14] = biological target: T3, Kappa-type opioid receptor; assay type: functional; remark: listed apart in the source
[15] = inhibitors of SNCA 5'UTR-driven translation, confirmation, luminescence, H4 neuroglioblastoma cells, dose confirmation (AID 2454); assay type: functional, cell-based;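 note: H4 neuroglioblastoma cells carrying an alpha-synuclein 5'UTR luciferase reporter; potency for inhibition of the luciferase signal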
Cannabinoid receptor 2 [16] = biological target: T4, Cannabinoid receptor 2 (Homo sapiens, UniProt P34972); assay: SAR analysis of antagonists of the Cannabinoid Receptor 2 using an Image-Based Assay - Set 2. [Related pubchem assays (depositor defined):AID1961, AID1965]; assay type: functional
T4 sequence (P34972 whole entry): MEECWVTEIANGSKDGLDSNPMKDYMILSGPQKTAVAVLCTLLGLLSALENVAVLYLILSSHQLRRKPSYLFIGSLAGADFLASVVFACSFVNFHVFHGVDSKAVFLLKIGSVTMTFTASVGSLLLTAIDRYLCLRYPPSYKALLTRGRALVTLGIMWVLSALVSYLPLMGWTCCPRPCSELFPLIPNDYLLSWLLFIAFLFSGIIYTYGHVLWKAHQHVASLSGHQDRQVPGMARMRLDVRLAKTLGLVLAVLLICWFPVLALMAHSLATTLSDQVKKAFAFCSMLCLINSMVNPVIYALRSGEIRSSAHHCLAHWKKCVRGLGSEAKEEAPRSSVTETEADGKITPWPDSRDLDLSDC

Cannabinoid receptor 2 [17] = biological target: T4, Cannabinoid receptor 2; assay: SAR analysis of agonists of the Cannabinoid Receptor 2 using an Image-Based Assay - Set 2. [Related pubchem assays (depositor defined):AID1961, AID1965]; assay type: functional
[18] = biological target: T5, G-protein coupled receptor 55 (Homo sapiens, UniProt Q9Y2T6); assay: SAR analysis of selective Agonists of GPR55 using an Image-Based Assay. [Related pubchem assays (depositor defined):AID1961, AID1965]; assay type: functional
T5 sequence (Q9Y2T6 whole entry): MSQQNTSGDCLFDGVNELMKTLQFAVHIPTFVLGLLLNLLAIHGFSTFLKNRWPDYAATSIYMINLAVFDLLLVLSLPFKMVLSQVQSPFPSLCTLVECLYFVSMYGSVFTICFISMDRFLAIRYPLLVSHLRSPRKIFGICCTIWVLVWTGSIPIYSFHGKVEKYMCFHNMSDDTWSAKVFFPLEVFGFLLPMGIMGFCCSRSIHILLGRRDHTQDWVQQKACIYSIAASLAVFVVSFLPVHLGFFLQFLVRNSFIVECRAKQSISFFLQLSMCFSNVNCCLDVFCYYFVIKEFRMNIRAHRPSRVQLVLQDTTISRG

[19] = biological target: T5, G-protein coupled receptor 55; assay: GPR55 agonists via beta-arrestin recruitment, primary screen, imaging, U2OS cells, beta-arrestin-GFP redistribution (AID 1961); assay type: functional
Cannabinoid receptor 1 = Cannabinoid receptor 1 (Homo sapiens, UniProt P21554); assay: SAR analysis of antagonists of the Cannabinoid Receptor 1 using an Image-Based Assay. [Related pubchem assays (depositor defined):AID1961, AID1965]; assay type: functional
Sequence of Cannabinoid receptor 1 (P21554 whole entry): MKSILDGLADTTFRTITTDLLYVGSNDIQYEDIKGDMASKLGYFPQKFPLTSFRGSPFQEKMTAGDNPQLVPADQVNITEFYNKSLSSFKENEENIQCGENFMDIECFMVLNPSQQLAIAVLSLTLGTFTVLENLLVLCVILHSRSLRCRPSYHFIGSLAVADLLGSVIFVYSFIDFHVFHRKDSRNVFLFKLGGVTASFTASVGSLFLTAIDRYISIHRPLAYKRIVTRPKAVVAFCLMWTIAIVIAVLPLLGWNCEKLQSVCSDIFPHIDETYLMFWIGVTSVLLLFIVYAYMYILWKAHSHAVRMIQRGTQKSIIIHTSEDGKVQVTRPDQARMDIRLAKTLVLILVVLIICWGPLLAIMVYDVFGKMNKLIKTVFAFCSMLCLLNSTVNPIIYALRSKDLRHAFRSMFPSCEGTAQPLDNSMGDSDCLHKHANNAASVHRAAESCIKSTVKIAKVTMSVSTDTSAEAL

Hexokinase HKDC1 = biological target: T6, Hexokinase HKDC1 (Homo sapiens, UniProt Q2TB90); assay: HKDC1 hexokinase activators, dose response, biochemical, W721R variant (AID 504730); assay type: functional
T6 sequence (Q2TB90 whole entry): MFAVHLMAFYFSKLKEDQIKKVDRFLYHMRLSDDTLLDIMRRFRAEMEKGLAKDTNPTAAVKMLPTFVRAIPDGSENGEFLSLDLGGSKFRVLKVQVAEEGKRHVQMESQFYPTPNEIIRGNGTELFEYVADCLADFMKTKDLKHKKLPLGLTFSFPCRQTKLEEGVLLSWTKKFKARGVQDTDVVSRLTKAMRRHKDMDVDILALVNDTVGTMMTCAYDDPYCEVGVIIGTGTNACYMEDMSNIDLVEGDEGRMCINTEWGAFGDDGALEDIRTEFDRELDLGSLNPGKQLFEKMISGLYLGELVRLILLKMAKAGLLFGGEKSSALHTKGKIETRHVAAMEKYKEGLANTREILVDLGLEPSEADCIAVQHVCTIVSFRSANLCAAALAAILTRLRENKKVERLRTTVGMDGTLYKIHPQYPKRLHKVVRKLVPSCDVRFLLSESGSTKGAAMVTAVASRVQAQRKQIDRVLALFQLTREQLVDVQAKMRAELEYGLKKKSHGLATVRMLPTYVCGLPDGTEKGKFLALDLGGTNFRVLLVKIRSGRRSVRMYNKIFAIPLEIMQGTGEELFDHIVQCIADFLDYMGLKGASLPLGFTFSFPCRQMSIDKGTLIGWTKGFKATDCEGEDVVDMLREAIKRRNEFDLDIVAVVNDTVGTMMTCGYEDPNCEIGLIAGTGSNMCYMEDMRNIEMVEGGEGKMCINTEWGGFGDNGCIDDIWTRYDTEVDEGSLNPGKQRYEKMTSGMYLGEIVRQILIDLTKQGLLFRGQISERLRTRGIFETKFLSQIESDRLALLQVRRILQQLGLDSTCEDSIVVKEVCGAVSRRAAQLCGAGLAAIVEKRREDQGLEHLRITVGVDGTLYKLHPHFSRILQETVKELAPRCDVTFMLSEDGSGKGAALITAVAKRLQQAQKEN

[20] = biological target: Lysosomal acid glucosylceramidase (Homo sapiens, UniProt P04062); assay: Dose response cell-based high throughput screening assay to identify enhancers of beta-glucosidase activity. [Related pubchem assays: 784 ]; assay type: functional
Sequence of Lysosomal acid glucosylceramidase (P04062 whole entry): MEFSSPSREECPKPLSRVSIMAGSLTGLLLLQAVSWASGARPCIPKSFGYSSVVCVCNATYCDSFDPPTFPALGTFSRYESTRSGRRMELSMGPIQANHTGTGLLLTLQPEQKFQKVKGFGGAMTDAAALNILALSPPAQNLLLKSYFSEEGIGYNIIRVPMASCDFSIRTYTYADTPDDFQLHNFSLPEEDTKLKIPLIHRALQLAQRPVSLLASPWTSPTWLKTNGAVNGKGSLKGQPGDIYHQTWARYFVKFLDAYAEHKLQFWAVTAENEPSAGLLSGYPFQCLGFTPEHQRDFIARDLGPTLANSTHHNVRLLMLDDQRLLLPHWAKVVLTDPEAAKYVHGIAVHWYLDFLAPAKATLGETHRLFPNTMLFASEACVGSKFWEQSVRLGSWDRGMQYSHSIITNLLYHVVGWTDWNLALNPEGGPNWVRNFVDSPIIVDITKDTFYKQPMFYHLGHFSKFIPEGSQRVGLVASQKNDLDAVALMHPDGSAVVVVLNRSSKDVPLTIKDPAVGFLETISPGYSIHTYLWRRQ

[21] = biological target: T7, Sphingosine 1-phosphate receptor 4 (Homo sapiens, UniProt O95977); assay: Late-stage fluorescence dose response cell-based assay to identify agonists of the Sphingosine 1-Phosphate Receptor 4 (S1P4): purchased compounds EC50. [Related pubchem assays (depositor defined):AID1509, AID1523, AID1563, AID1686, AID1701, AID1801]; assay type: functional
T7 sequence (O95977 whole entry): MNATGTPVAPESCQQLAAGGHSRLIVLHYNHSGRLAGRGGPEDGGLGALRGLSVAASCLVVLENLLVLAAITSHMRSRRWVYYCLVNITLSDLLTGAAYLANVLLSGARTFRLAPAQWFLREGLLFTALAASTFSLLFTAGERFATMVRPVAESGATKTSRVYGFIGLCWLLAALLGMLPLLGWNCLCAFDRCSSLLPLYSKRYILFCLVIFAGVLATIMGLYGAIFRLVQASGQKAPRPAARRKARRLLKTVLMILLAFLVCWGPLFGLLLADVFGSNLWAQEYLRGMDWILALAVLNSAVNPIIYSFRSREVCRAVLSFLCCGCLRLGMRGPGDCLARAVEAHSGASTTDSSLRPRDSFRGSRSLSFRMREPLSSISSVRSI

Hexokinase = Hexokinase (Trypanosoma brucei, UniProt Q38C41); assay: Confirmation assay for inhibitors of Trypanosoma brucei hexokinase 1-Analogue-first series. [Related pubchem assays (depositor defined):AID1430, AID1632, AID2516, AID2560, AID2579, AID2600, AID449725, AID492951]; assay type: functional
Sequence of Hexokinase (Q38C41 whole entry, the tested form may be a part): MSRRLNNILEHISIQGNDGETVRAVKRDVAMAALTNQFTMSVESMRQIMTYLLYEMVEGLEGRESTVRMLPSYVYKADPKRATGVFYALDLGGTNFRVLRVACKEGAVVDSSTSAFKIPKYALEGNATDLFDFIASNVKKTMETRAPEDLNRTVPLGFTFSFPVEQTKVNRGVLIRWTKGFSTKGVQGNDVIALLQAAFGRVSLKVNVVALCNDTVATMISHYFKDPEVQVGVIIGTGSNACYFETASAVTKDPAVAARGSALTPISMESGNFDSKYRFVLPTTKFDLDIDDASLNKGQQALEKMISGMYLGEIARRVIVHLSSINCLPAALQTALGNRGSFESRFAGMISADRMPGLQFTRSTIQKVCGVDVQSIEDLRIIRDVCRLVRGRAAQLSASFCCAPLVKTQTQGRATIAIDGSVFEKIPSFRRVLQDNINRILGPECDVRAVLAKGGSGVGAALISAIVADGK

[22] = biological target: T8, Type-1 angiotensin II receptor (Homo sapiens, UniProt P30556); assay: AT1 receptor agonists, dose response, selectivity assay for APJ receptor agonist project, cell-based, uHTS hits (AID 488865); assay type: functional;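 note: beta-arrestin recruitment to AT1 measured by enzyme fragment complementation luminescence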
T8 sequence (P30556 whole entry): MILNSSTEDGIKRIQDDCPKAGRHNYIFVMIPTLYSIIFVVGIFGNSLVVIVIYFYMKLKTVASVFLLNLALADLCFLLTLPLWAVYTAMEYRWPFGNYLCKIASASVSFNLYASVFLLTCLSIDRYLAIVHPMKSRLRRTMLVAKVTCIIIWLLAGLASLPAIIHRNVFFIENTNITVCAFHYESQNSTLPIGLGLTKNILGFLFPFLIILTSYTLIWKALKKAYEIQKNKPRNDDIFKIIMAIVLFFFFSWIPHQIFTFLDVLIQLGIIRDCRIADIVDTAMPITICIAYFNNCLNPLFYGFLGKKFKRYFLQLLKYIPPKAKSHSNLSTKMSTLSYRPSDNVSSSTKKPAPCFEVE

Cc1ccc(OCCC(=O)OCC(=O)Nc2ccc(Cl)cn2)cc1
IC50 (Bcl-2-like protein 10): 72.8 µM (inactive)

COc1ccc(C(=O)n2nc(-c3ccc(Cl)cc3)nc2N)cc1OC
EC50 [1]: > 260 µM (inconclusive)
IC50 [2]: > 80 µM (inactive)

Cc1ccc(C)c(S(=O)(=O)Nc2ccc(O)c(Sc3nnc[nH]3)c2)c1
EC50 [3]: 11.9 µM (active)
IC50 [4]: 2.75 µM (active)
IC50 [5]: 5.46 µM (active)
AC50 [6]: 2.05 µM (active)

COc1ccc(N=Nc2ccc(O)c3ncccc23)cc1
EC50 [7]: > 12 µM (not active)
CC50 (Vero): 6.3 µM (active)
EC50 [8]: < 0.1 µM (active)
IC50 [9]: 5.64 µM (active)
EC50 (cells): 1.65 µM (active)
EC50 [10]: 6.71 µM (active)
EC50 (Beta-galactosidase): 24.6 µM (active)
AC50 [11]: 3.34 µM (active)
EC50 [12]: 8.21 µM (active)
EC50 (Streptococcus): 2.5 µM (active)
AC50 (INS1): 1.16 µM (active)
EC50 [13]: 0.191 µM (active)
IC50 [14]: > 32 µM
EC50 [15]: > 12 µM (not active)

O=Cc1cn(Cc2ccc([N+](=O)[O-])cc2)c2ccccc12
EC50 [7]: 1.25 µM (active)
EC50 [8]: 0.233 µM (active)
EC50 (cells): 0.466 µM (active)
EC50 [10]: < 0.1 µM (active)
EC50 [12]: 5.79 µM (active)
EC50 [15]: 1.02 µM (active)

COc1cc2c(cc1NC(=O)CSc1ccccc1)oc1ccccc12
IC50 (Cannabinoid receptor 2 [16]): > 32 µM (inactive)
EC50 (Cannabinoid receptor 2 [17]): > 32 µM (inactive)
EC50 [18]: 0.627 µM (active)
EC50 [19]: 0.671 µM (active)
IC50 (Cannabinoid receptor 1): > 32 µM (inactive)

COc1ccc(-c2nn(C)c(=O)c3ccccc23)cc1NS(C)(=O)=O
IC50 [2]: > 80 µM (inactive)

Cc1cc(Oc2ccc(C(C)(C)C)cc2)nc(N2CCOCC2)n1
EC50 (Hexokinase HKDC1): > 80 µM (inactive)

CCCc1cc(O)nc(SCC(=O)CSc2nc(O)cc(CCC)n2)n1
EC50 [20]: > 50 µM (not active)

Cc1ccc(OC(C)C(=O)Nc2cc(Cl)ccc2Cl)c([N+](=O)[O-])n1 (stereo unspecified)
EC50 [21]: > 50 µM (inactive)

Cc1cc(C)cc(OCCOc2ccc(C)nc2[N+](=O)[O-])c1
EC50 [21]: > 50 µM (inactive)

O=c1c2cc(F)c(F)cc2sn1-c1ccccc1
IC50 (Hexokinase): 2.23 µM (active)

O=C(Cn1ncc2c3ccccc3nc-2c1O)Nc1ccc(CN2CCCCC2)cc1
EC50 [22]: > 100 µM (inactive)

CCc1ccc(C(=O)Nc2cc(Cl)ccc2C(=O)OC)cc1
IC50 (Hexokinase): > 25 µM (inactive)

C/N=C1/SC(CC(=O)Nc2cccc(C(F)(F)F)c2)C(=O)N1C (stereo unspecified)
EC50 [20]: > 50 µM (not active)
